In data set [1] the test system is Pseudomonas aeruginosa. In words: Agar plate disc-diffusion, antibacterial inhibition zone. Type of data set: cell-based. The note with it: nutrient agar, 37° C., 48 h, DMSO zone subtracted. The protocol:
(§1) The agar plate disc-diffusion method was applied. […] The discs were then placed onto the surface of agar plates (nutrient agar for bacteria and Sabouraud's dextrose agar for fungi) seeded with the test organism. Each plate contained 15 mLof the agar medium, previously seeded with 0.2 mL of the broth culture of each organism pregrown for 18 h. The plates were incubated at 37° C. for 48 h, and 72 h for fungi. The inhibition zones was measured in mm. Discs impregnated with DMSO were used as a control, and its inhibition zone was subtracted from the tested compound actual inhibition zone.

The test system of data set [2] is Bacillus cereus. Described as above. Type of data set: cell-based. The note with it: nutrient agar, 37° C., 48 h, DMSO zone subtracted. The protocol: as §1
For data set [3], the system named is Staphylococcus aureus. The data set is described as above. As to conditions: nutrient agar, 37° C., 48 h, DMSO zone subtracted. Type of data set: cell-based. Here is the method: as §1
In data set [4] the test system is Escherichia coli. The data set is described as above. Format: cell-based. The note with it: nutrient agar, 37° C., 48 h, DMSO zone subtracted. The protocol:
as §1

The test system of data set [5] is Aspergillus flavus. As to the kind of experiment: Agar plate disc-diffusion, antifungal inhibition zone. Format: cell-based. The note with it: Sabouraud's dextrose agar, 37° C., 72 h, DMSO zone subtracted. The protocol:
as §1

The subject of data set [6] is Chrysosporium keratinophilum. Described as above. Type of data set: cell-based. As to conditions: Sabouraud's dextrose agar, 37° C., 72 h, DMSO zone subtracted. Here is the method: as §1
Where [7] appears, read: A = concentration of comp. = 10,000 μL.
[8] abbreviates: B = concentration of comp. = 30,000 μL.
Setting [9] is: C = concentration of comp. = 50,000 μL.

Molecules are shown by their SMILES.

The compound `O=C(O)CCCCCSc1nnc(-c2cccc(F)c2)n1-c1ccccc1` [III, 6-(5-(3-fluorophenyl)-4-phenyl-4H-1,2,4-triazol-3-ylthio)hexanoic acid] showed a melting point of 164 °C. In addition, in data set [1] (setting [7]), the “inhibition zone, Pseudomonas aeruginosa” value turned out to be 24 mm. In data set [1] (setting [8]), the “inhibition zone, Pseudomonas aeruginosa” value stood at 26 mm. In data set [1] (setting [9]), the “inhibition zone, Pseudomonas aeruginosa” value is 45 mm. Besides, the “inhibition zone, Bacillus Cereus” value in data set [2] (setting [7]) was found to be 26 mm. For the same compound, the “inhibition zone, Bacillus Cereus” value in data set [2] (setting [8]) amounted to 30 mm. The “inhibition zone, Bacillus Cereus” value in data set [2] (setting [9]) was 41 mm. For the same compound, the “inhibition zone, Staphylococcus aureus” value in data set [3] (setting [7]) came out at 22 mm. Moreover, the “inhibition zone, Staphylococcus aureus” value in data set [3] (setting [8]) is 25 mm. In addition, in data set [3] (setting [9]), the “inhibition zone, Staphylococcus aureus” value is 30 mm. Further, the “inhibition zone, Escherichia coli” value in data set [4] (setting [7]) was determined as 27 mm. Besides, the “inhibition zone, Escherichia coli” value in data set [4] (setting [8]) was found to be 34 mm. The “inhibition zone, Escherichia coli” value in data set [4] (setting [9]) was determined as 56 mm. Moreover, the “inhibition zone, Aspergillus flavus” value in data set [5] (setting [7]) stood at 21 mm. Besides, the “inhibition zone, Aspergillus flavus” value in data set [5] (setting [8]) amounted to 27 mm. Besides, in data set [5] (setting [9]), the “inhibition zone, Aspergillus flavus” value is recorded as 37 mm. The “inhibition zone, Chrysosporium keratinophilum” value in data set [6] (setting [7]) stood at 25 mm. The “inhibition zone, Chrysosporium keratinophilum” value in data set [6] (setting [8]) turned out to be 28 mm. The “inhibition zone, Chrysosporium keratinophilum” value in data set [6] (setting [9]) was 46 mm.

The values above are taken from patent publication US11932612B1, “6-(5-(3-fluorophenyl)-4-phenyl-4H-1,2,4-triazol-3-ylthio)hexanoic acid as an antimicrobial compound” (KING FAISAL UNIVERSITY, priority 2023, dated 2024).
